Measurements taken from patent US10760052B2, “Method of inhibiting tau phosphorylation” (priority 2012, dated 2020).

Key:
α7nAChR-FLNA complex [1] = target: T1, α7nAChR-FLNA complex (Rattus norvegicus, UniProt A0A8I5ZV49); assay: Aβ42-induced α7nAChR-FLNA association in rat frontal cortical synaptosomes (co-immunoprecipitation/Western blot); type: cell-based
T1 construct: from tissue; host or cells: rat frontal cortex synaptosomes
Description: The α7nAChR-FLNA complexes in the solubilized synaptosomes were immunoprecipitated with immobilized anti-FLNA and the α7nAChR and FLNA levels in the anti-FLNA immunoprecipitates determined by Western blotting (FIG. 2A) and quantified by densitometry (FIG. 2B). n=3. […] The letter designation “M” that accompanies many of the “C-series” compounds is omitted from FIG. 2, the remaining figures and most discussions of the figures and compounds hereinafter for ease in expression. Structural formulas of the compounds used in this and the other figures are provided hereinafter. […]

NMDAR [2] = type: cell-based, rat; conditions: slice cultures, 0.1 μM Aβ42
α7nAChR-FLNA complex [3] = target: T2, α7nAChR-FLNA complex (Mus musculus, UniProt Q8BTM8); assay: ICV Aβ42 infusion mouse model: FLNA association with α7nAChR; type: in vivo; conditions: 10 mg/kg twice daily; prefrontal cortex and hippocampus
T2 construct: from tissue; host or cells: synaptosomes from prefrontal cortex and hippocampus of treated E129 mice
Procedure: . The anti-FLNA immunocomplexes were obtained by centrifugation, washed and dissociated using antigen elution buffer. […] The levels of FLNA-associated α7nAChRs and TLR4s were assessed by Western blotting and the blot stripped and re-probed for FLNA for immunoprecipitation/loading control.

insulin receptor (IR) [4] = assay: Postmortem human frontal cortex: IR activation and signaling; type: cell-based; conditions: AD and Aβ42-treated control brain slices; 1 nM
Procedure: IR activation and signaling were initiated by incubation of approximately 10 mg of in vitro treated brain slices with either KR (basal) or KR containing 1 nM insulin at 37° C. for 30 minutes. […] Ligand stimulation was terminated by the addition of 1 ml of ice-cold Ca^2+-free K-R containing 0.5 mM EGTA and 0.1 mM EDTA. Brain slices were harvested by a brief centrifugation and were homogenized in 0.25 ml of ice-cold immunoprecipitation buffer. The homogenates were centrifuged at 1000×g for 5 minutes (4° C.) and the supernatant (post-mitochondrial fraction) is sonicated for 10 seconds on ice. […] The resultant lysates are then cleared by centrifugation at 50,000×g for 5 minutes and diluted with 0.75 ml of immunoprecipitation buffer. Protein concentrations are measured by Bradford method (Bio-Rad).
The blots were stripped and re-probed with anti-IRβ to assess the loading as appropriate.

FLNA = target: T3, FLNA (Homo sapiens, UniProt P21333); assay: [3H]NLX competition binding to FLNA in SK-N-MC cell membranes; conditions: read-out: IC50-L, inhibition of [3H]NLX binding
T3 construct: validate the use of that 5-mer peptide as a surrogate for the complete molecule in the assays carried out herein; host or cells: A7 cells

insulin receptor (IR) [5] = assay: ICV Aβ42 infusion mouse model: IR signaling; type: in vivo; conditions: 10 mg/kg twice daily
Procedure: IR activation and signaling was initiated by incubation of tissue with either K-R (basal) or K—R containing 1 nM insulin at 37° C. for 30 minutes. […] Ligand stimulation was terminated by the addition of 1 ml of ice-cold Ca^2+-free K-R containing mixture of protein phosphatase inhibitors, 0.5 mM EGTA and 0.1 mM EDTA.
Tissues were briefly centrifuged and homogenized in 0.25 ml of ice-cold immunoprecipitation buffer. The homogenates were centrifuged at 1000×g for 5 minutes (4° C.) and the supernatant (post-mitochondrial fraction) was sonicated for 10 seconds on ice. […] The resultant lysates were then cleared by centrifugation at 50,000×g for 5 minutes and diluted with 0.75 ml of immunoprecipitation buffer. Protein concentrations were measured by Bradford method (Bio-Rad).
In these studies, brain tissue lysates (100 μg) were immunoprecipitated overnight (about 18 hours) at 4° C. with 2 μg of immobilized anti-IRβ onto covalently conjugated protein A-agarose beads (Pierce-ENDOGEN).
Anti-IRβ immunoprecipitates were incubated with 75 μl antigen elution buffer (Pierce-ENDOGEN) and 2% SDS for 2 minutes on ice, centrifuged to remove antibody-protein A-agarose complexes and neutralized immediately with 10 μl 1.5 M Tris buffer, pH 8.8 followed by addition of 65 μl 2× PAGE sample buffer and boiled for 5 minutes. […]

NFT and Aβ42 aggregates = assay: ICV Aβ42 infusion mouse model: immunohistochemistry of NFT and Aβ42 aggregates; type: in vivo; conditions: 10 mg/kg twice daily
Procedure: One section was immunostained with anti-NFT or -PHF.
Brain tissues were fixed at 4° C. in 0.15 M phosphate-buffered 10% formalin, pH 7.4 for 2 weeks, paraffin embedded, serially sectioned at 5 μm, and processed for brightfield immunohistochemistry as described. The […] but not Aβ42-1. Specimens were examined using a Nikon FXA microscope with a Princeton Instruments CCD camera and recorded digitally.
The correlations between the amount of NFT/PHF immunoreactivity and Aβ42-positive material accumulated within mature neurons were also determined.

[6] = test system: voltage-gated Ca2+ channel mediated Ca2+ influx; type: cell-based, rat; conditions: slice cultures
NMDAR [7] = type: cell-based, human; conditions: AD and Aβ42-treated control brain slices
α7nAChR = type: cell-based, rat
NMDAR [8] = assay: ICV Aβ42 infusion mouse model: NMDAR signaling molecules; type: in vivo; conditions: 10 mg/kg twice daily
Procedure: NMDAR signaling and their interaction with synaptic anchoring protein, PSD-95 were compared in synaptosomes from treated mice. NMDAR activation and signaling was initiated by incubation of 6 slices with either 0.3 mM Mg^2+ containing KR (LMKR; basal) or LMKR containing 10 μM NMDA and 1 μM glycine at 37° C. for 30 minutes.
Ligand stimulation was terminated by the addition of 1 ml of ice-cold Ca^2+-free K-R containing mixture of protein phosphatase inhibitors, 0.5 mM EGTA and 0.1 mM EDTA. After harvesting, tissues were briefly centrifuged and homogenized in 0.25 ml of ice-cold immunoprecipitation buffer. The homogenates were centrifuged at 1000×g for 5 minutes (4° C.) and the supernatant (post-mitochondrial fraction) was sonicated for 10 seconds on ice.
The resultant lysates were cleared by centrifugation at 50,000×g for 5 minutes and diluted with 0.75 ml of immunoprecipitation buffer. Protein concentrations were measured by Bradford method (Bio-Rad).
To determine the NMDARs association with PSD-95 as well as NMDAR signaling, the levels of NMDAR subunits, PSD-95 and NMDAR-associated signaling molecules were measured in anti-NR1 immunoprecipitates. In these studies, brain tissue lysates (100 μg) were immunoprecipitated overnight (about 18 hours) at 4° C. with 2 μg of immobilized anti-NR1 onto covalently conjugated protein A-agarose beads (Pierce-ENDOGEN). […]

[9] = test system: tau (pSer202, pThr231, pThr181); assay: ICV Aβ42 infusion mouse model: tau phosphorylation; type: in vivo; conditions: 10 mg/kg twice daily
Procedure: The levels of phosphorylated tau (pSer202tau, pThr231tau and pThr181tau) as well as total tau precipitated (loading controls) were assessed by Western blotting using specific antibodies directed against each of the phosphoepitopes and the anti-tau, respectively.

IL-6, TNF-α and IL-1β = assay: ICV Aβ42 infusion mouse model: cytokine levels (fluorescence ELISA); type: in vivo
Procedure: Following centrifugation, the resultant lysate was then dilute with 500 μl (total volume 600 μl) and used as the source of cytokines.
Plates were washed 3 times with ice-cold 50 mM Tris HCl (pH 7.4) and incubated at 30° C. with 100 μl of lysate derived from the above mentioned tissues for 1 hour.
Plates were washed 3 times with ice-cold 50 mM Tris HCl (pH 7.4) and incubated at 30° C. with 0.5 μg/well un-conjugated rabbit anti-TNF-α, anti-IL-6 and anti-IL-1β for 1 hour. After two washes with 50 mM Tris HCl (pH 7.4), each well was incubated in 0.5 μg/well FITC-conjugated anti-rabbit IgG (human and mouse absorbed) for 1 hour at 30° C. Plates were washed twice with 200 μl ice-cold Tris HCl, pH 7.4 and the residual FITC signals were determined by multimode plate reader, DTX880 (Beckman). Each lysate was surveyed twice.

[10] = test system: voltage-gated calcium channel-mediated Ca2+ influx; type: cell-based, human; conditions: postmortem AD tissue; 1 nM
TLR4-FLNA complex = target: T4, TLR4-FLNA complex (Homo sapiens, UniProt P21333); assay: Postmortem human frontal cortex: TLR4-FLNA association; type: cell-based; conditions: AD and Aβ42-treated control tissue; 0.1 or 1 nM
T4 construct: from tissue; host or cells: postmortem frontal cortex slices / synaptosomes (AD and control subjects)
Procedure: Postmortem frontal cortex tissues were gradually thawed (from −80° C. to −20° C.) and were sliced using a chilled McIlwain tissue chopper (200 μm×200 μm×3 mm). […] Following two additional washes with 1 ml of ice-cold K-R, brain slices were suspended in 1 ml of K-R.
Incubation continued for 1 hour in the dark to minimize light destruction of the test agents. […] Reaction was terminated by the addition of 1.5 ml of ice-cold Ca^2+-free K-R. Tissue slices were harvested by a brief centrifugation and used as the tissue sources for various assays.

α7nAChR (Aβ42 binding) = assay: FITC-Aβ42 binding to biotinylated α7nAChR-containing SK-N-MC cell fragments; parameters: species or system human; conditions: added simultaneously, 30° C., 30 minutes

T1 sequence (A0A8I5ZV49 entry or part of it, one chain of several): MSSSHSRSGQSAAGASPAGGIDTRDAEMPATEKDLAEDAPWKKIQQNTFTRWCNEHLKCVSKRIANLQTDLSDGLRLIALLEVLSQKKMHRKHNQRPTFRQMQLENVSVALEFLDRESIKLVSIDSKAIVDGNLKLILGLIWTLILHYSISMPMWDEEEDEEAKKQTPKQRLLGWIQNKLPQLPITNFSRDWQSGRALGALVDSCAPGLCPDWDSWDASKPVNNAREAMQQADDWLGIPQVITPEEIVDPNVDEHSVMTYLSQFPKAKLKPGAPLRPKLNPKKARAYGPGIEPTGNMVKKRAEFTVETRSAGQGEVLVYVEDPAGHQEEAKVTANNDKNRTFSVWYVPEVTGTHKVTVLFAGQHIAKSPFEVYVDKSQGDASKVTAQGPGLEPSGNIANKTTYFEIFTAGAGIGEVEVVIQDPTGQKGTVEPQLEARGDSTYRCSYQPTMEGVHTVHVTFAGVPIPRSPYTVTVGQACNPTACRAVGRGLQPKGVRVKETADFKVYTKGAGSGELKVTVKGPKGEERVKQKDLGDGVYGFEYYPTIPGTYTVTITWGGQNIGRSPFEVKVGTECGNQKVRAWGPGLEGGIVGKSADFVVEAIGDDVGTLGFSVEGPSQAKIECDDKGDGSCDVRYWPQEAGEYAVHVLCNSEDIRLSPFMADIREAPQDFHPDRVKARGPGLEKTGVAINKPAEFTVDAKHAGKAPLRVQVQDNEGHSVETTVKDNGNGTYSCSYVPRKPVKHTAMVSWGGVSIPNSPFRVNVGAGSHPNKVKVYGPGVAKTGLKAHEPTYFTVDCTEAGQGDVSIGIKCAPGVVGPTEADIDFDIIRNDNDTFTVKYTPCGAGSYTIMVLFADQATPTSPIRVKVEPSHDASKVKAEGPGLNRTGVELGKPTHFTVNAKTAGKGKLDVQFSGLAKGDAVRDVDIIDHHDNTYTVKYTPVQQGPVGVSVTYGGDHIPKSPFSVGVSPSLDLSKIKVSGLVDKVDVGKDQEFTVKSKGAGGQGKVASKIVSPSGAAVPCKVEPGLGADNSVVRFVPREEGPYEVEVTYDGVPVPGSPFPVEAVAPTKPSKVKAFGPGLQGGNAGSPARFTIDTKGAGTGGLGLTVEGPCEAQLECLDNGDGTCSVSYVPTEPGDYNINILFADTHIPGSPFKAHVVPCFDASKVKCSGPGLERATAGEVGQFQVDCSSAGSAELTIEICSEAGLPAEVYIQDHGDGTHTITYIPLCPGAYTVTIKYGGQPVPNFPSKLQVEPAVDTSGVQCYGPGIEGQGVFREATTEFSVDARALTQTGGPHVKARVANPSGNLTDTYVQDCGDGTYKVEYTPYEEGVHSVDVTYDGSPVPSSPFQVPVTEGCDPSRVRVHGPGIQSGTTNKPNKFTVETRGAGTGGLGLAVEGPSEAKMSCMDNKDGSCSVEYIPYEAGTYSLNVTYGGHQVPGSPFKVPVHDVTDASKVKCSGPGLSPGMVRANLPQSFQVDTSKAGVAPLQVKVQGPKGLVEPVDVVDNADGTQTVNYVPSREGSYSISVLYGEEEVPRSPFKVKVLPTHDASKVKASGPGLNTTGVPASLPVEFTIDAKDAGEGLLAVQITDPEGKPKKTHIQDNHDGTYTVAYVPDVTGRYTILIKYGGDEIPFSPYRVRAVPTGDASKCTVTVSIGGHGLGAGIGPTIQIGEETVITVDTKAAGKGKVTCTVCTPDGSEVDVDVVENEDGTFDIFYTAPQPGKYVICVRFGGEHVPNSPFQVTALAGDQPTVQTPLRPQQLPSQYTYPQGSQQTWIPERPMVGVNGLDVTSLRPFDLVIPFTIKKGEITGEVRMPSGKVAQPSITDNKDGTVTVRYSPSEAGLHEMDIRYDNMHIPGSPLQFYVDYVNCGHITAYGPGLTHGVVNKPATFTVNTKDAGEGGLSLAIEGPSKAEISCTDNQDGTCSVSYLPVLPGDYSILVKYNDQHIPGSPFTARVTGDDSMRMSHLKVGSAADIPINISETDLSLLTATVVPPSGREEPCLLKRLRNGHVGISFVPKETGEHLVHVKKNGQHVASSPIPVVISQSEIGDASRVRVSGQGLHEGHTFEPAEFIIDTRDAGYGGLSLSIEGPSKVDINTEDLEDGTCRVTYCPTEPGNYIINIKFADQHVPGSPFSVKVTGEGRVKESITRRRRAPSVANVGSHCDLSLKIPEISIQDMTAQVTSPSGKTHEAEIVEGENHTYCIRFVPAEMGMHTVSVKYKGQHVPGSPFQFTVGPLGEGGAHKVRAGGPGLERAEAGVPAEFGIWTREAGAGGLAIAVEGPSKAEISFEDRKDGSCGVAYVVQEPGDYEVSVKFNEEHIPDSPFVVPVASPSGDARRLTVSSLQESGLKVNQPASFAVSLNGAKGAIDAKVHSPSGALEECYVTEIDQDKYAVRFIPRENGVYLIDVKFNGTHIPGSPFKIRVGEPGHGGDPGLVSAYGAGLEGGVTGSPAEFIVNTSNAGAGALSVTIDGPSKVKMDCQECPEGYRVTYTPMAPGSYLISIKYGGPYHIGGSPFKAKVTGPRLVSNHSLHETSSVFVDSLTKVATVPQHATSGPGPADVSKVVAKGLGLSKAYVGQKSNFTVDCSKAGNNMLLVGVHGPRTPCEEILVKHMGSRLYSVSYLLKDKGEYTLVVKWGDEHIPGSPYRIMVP

SMILES: CN1CCC2(CC1)NCC(=O)N2Cc1ccccc1 [Compound C0105]
- α7nAChR-FLNA association (ratio α7nAChR/FLNA) (α7nAChR-FLNA complex [1]; 1 or 10 nM compound, simultaneously or 10 minutes prior to Aβ42 (0.1 μM)): statistically different from Aβ42 alone
- α7nAChR-FLNA association (α7nAChR-FLNA complex [1]; simultaneous administration with Aβ42): markedly reduced this coupling
- Aβ42-induced impairment in NMDAR function (calcium influx after NMDA and glycine) (NMDAR [2]): completely prevented by 1 and 10 nM
- Aβ42-induced increase in FLNA association with α7nAChR (α7nAChR-FLNA complex [3]): reduced Aβ42-induced increases in FLNA associations with both α7nAChR and TLR4
- IR signaling assemblies (insulin receptor (IR) [4]): Normalization of receptor function
- IC50 (FLNA): 0.111 nM
- IR signaling (IRβ phosphorylation, IRS-1 association) (insulin receptor (IR) [5]): restored
- Amyloid deposits (IHC, FCX and HP) (NFT and Aβ42 aggregates): prevents
- NFT formation (IHC, FCX and HP) (NFT and Aβ42 aggregates): prevents
- Aβ42-induced reduction of K+-evoked calcium influx [6]: completely reversed by 1 and 10 nM
- Functioning of NMDAR (calcium influx after receptor stimulation) (NMDAR [7]): preserves functioning
- Aβ42-induced impairment in α7nAChR function (calcium influx after PNU282987) (α7nAChR): fully restoring function
- Levels of NMDAR signaling molecules co-immunoprecipitating with NR-1 (NMDAR [8]): normalized
- Tau phosphorylation at three sites [9]: suppressed tau phosphorylation at all three phosphorylation sites
- Aβ42-induced IL-6 production (IL-6, TNF-α and IL-1β; 10 mg/kg twice daily): completely abolished
- Suppression of IL-1β level (IL-6, TNF-α and IL-1β; 10 mg/kg twice daily): 80%
- Suppression of TNF-α level (IL-6, TNF-α and IL-1β; 10 mg/kg twice daily): 86%
- Decrease of levels of IL-6, TNF-α and IL-1 (IL-6, TNF-α and IL-1β; mice receiving C0105): 80-100%
- Deficit in depolarization-induced calcium influx [10]: attenuated the deficit
- FLNA association with TLR4 (TLR4-FLNA complex): reduces Aβ42-induced FLNA association with α7nAChR and TLR4
- Inhibition of FITC-Aβ42 binding (α7nAChR (Aβ42 binding); 0.1 nM compound): 52.3±3.7%
- Inhibition of FITC-Aβ42 binding (α7nAChR (Aβ42 binding); 1 nM compound): 55.1±3.0%
- Inhibition of FITC-Aβ42 binding (α7nAChR (Aβ42 binding); 10 nM compound): 56.5±4.2%
